Test results reported in US20210094973A1, “HETEROCYCLIC COMPOUNDS” (Hoffmann-La Roche Inc., priority 2019, published 2021).

Target: T1, MAGL (Homo sapiens, UniProt Q99685)
T1 sequence (Q99685 1-303): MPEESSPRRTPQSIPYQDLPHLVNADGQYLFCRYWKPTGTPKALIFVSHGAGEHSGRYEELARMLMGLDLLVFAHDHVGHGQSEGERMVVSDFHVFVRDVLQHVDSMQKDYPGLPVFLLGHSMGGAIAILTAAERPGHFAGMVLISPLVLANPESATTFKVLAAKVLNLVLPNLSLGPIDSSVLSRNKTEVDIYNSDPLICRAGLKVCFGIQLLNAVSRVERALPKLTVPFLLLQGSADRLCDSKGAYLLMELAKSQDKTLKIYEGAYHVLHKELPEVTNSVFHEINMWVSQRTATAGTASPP
Assay: 2-AG assay (MAGL inhibitory activity, hydrolysis of 2-arachidonoylglycerol followed by mass spectrometry)
Assay type: biochemical
Details: 15 min preincubation at RT, 8 μM 2-arachidonoylglycerol, 30 min at RT, arachidonic acid by MS
Method: Compounds were profiled for MAGL inhibitory activity by determining the enzymatic activity by following the hydrolysis of the natural substrate 2-arachidonoylglycerol (2-AG) resulting in arachidonic acid, which can be followed by mass spectrometry. This assay is hereinafter abbreviated “2-AG assay”.
The 2-AG assay was carried out in 384 well assay plates (PP, Greiner Cat #784201) in a total volume of 20 μL. Compound dilutions were made in 100% DMSO (VWR Chemicals 23500.297) in a polypropylene plate in 3-fold dilution steps to give a final concentration range in the assay from 12.5 μM to […]. 0.25 μL compound dilutions (100% DMSO) were added to 9 μL MAGL in assay buffer (50 mM TRIS (GIBCO, 15567-027), 1 mM EDTA (Fluka, 03690-100 mL), 0.01% (v/v) Tween. After shaking, the plate was incubated for 15 min at RT. To start the reaction, 10 μL 2-arachidonoylglycerol in assay buffer was added. The final concentrations in the assay was […] and 8 μM 2-arachidonoylglyerol. After shaking and 30 min incubation at RT, the reaction was quenched by the addition of 40 μL of ACN containing 4 μM of d8-arachidonic acid. The amount of arachidonic acid was traced by an online SPE system (Agilent Rapidfire) coupled to a triple quadrupole mass spectrometer (Agilent 6460). A C18 SPE cartridge (G9205A) was used in an ACN/water liquid setup. The mass spectrometer was operated in negative electrospray mode following the mass transitions 303.1→259.1 for arachidonic acid and 311.1→267.0 for d8-arachidonic acid. The activity of the compounds was calculated based on the ratio of intensities [arachidonic acid/d8-arachidonic acid].

SMILES | IC50
O=C1CO[C@H]2CCN(C(=O)N3CC(c4ccc(C5CCOC5)cc4)C3)C[C@H]2N1 (single isomer, unassigned) [Example 1, (4aR,8aS)-6-[3-[4-[(3R or S)-Tetrahydrofuran-3-yl]phenyl]azetidine-1-carbonyl]-4,4a,5,7,8,8a-hexahydropyrido[4,3-b][1,4]oxazin-3-one] | 33.1 nM
O=C1CO[C@H]2CCN(C(=O)N3CC(c4ccc(C5CCOC5)cc4)C3)C[C@H]2N1 (single isomer, unassigned) [Example 2, (4aR,8aS)-6-[3-[4-[(3S or R)-Tetrahydrofuran-3-yl]phenyl]azetidine-1-carbonyl]-4,4a,5,7,8,8a-hexahydropyrido[4,3-b][1,4]oxazin-3-one] | 42 nM
O=C1CO[C@H]2CCN(C(=O)N3CC(c4ccc(OC5CC(F)(F)C5)cc4)C3)C[C@H]2N1 [Example 3, (4aR,8aS)-6-[3-[4-(3,3-Difluorocyclobutoxy)phenyl]azetidine-1-carbonyl]-4,4a,5,7,8,8a-hexahydropyrido[4,3-b][1,4]oxazin-3-one] | 4.1 nM
CC(C)Oc1ccc(C2CN(C(=O)N3CC[C@@H]4OCC(=O)N[C@@H]4C3)C2)cc1 [Example 4, (4aR,8aS)-6-[3-(4-Isopropoxyphenyl)azetidine-1-carbonyl]-4,4a,5,7,8,8a-hexahydropyrido[4,3-b][1,4]oxazin-3-one] | 7.1 nM
O=C1CO[C@H]2CCN(C(=O)N3CC(c4ccc(C5CCOCC5)cc4)C3)C[C@H]2N1 [Example 5, (4aR,8aS)-6-[3-(4-Tetrahydropyran-4-ylphenyl)azetidine-1-carbonyl]-4,4a,5,7,8,8a-hexahydropyrido[4,3-b][1,4]oxazin-3-one] | 6 nM
O=C1CO[C@H]2CCN(C(=O)N3CC(c4ccc(C5CC(F)(F)C5)cc4)C3)C[C@H]2N1 [Example 6, (4aR,8aS)-6-[3-[4-(3,3-Difluorocyclobutyl)phenyl]azetidine-1-carbonyl]-4,4a,5,7,8,8a-hexahydropyrido[4,3-b][1,4]oxazin-3-one] | 2.9 nM
O=C1CO[C@H]2CCN(C(=O)N3CC(c4nsc(-c5ccc(Cl)cc5Cl)n4)C3)C[C@H]2N1 [Example 7, (4aR,8aS)-6-[3-[5-(2,4-Dichlorophenyl)-1,2,4-thiadiazol-3-yl]azetidine-1-carbonyl]-4,4a,5,7,8,8a-hexahydropyrido[4,3-b][1,4]oxazin-3-one] | 9.1 nM
O=C1CO[C@H]2CCN(C(=O)N3CC(c4cn(-c5ccc(Cl)cc5Cl)cn4)C3)C[C@H]2N1 [Example 8, (4aR,8aS)-6-[3-[1-(2,4-Dichlorophenyl)imidazol-4-yl]azetidine-1-carbonyl]-4,4a,5,7,8,8a-hexahydropyrido[4,3-b][1,4]oxazin-3-one] | 38.8 nM
O=C1CO[C@H]2CCN(C(=O)N3CC(c4nc(-c5ccc(Cl)cc5C(F)(F)F)no4)C3)C[C@H]2N1 [Example 9, (4aR,8aS)-6-[3-[3-[4-Chloro-2-(trifluoromethyl)phenyl]-1,2,4-oxadiazol-5-yl]azetidine-1-carbonyl]-4,4a,5,7,8,8a-hexahydropyrido[4,3-b][1,4]oxazin-3-one] | 23.5 nM
CC1(C)CCc2cc(C3CN(C(=O)N4CC[C@@H]5OCC(=O)N[C@@H]5C4)C3)ccc2O1 [Example 10, (4aR,8aS)-6-(3-(2,2-Dimethylchroman-6-yl)azetidine-1-carbonyl)hexahydro-2H-pyrido[4,3-b][1,4]oxazin-3(4H)-one] | 6 nM
CC(C)COc1ccc(C2CN(C(=O)N3CC[C@@H]4OCC(=O)N[C@@H]4C3)C2)cc1 [Example 11, (4aR,8aS)-6-(3-(4-Isobutoxyphenyl)azetidine-1-carbonyl)hexahydro-2H-pyrido[4,3-b][1,4]oxazin-3(4H)-one] | 1.5 nM
CC(C)(Oc1ccc(C2CN(C(=O)N3CC[C@@H]4OCC(=O)N[C@@H]4C3)C2)cc1)C(F)(F)F [Example 12, (4aR,8aS)-6-[3-[4-(2,2,2-Trifluoro-1,1-dimethyl-ethoxy)phenyl]azetidine-1-carbonyl]-4,4a,5,7,8,8a-hexahydropyrido[4,3-b][1,4]oxazin-3-one] | 0.3 nM
O=C1CO[C@H]2CCN(C(=O)N3CC(c4ccc(OC5CCCC5)cc4)C3)C[C@H]2N1 [Example 13, (4aR,8aS)-6-(3-(4-(Cyclopentyloxy)phenyl)azetidine-1-carbonyl)hexahydro-2H-pyrido[4,3-b][1,4]oxazin-3(4H)-one] | 0.6 nM

Further lines, results first:

IC50 | SMILES
18.8 nM | CC1C(OCc2c(F)cccc2C(F)(F)F)CN1C(=O)N1CC[C@@H]2OCC(=O)N[C@@H]2C1 (single isomer, unassigned) [Example 27]
342 nM | CC1C(OCc2c(F)cccc2C(F)(F)F)CN1C(=O)N1CC[C@@H]2OCC(=O)N[C@@H]2C1 (single isomer, unassigned) [Example 28]
406 nM | CC1C(OCc2c(F)cccc2C(F)(F)F)CN1C(=O)N1CC[C@@H]2OCC(=O)N[C@@H]2C1 (single isomer, unassigned) [Example 29]
26.4 nM | CC1(C)CCOc2ccc(C3CN(C(=O)N4CC[C@@H]5OCC(=O)N[C@@H]5C4)C3)cc21 [Example 14, (4aR,8aS)-6-(3-(4,4-Dimethylchroman-6-yl)azetidine-1-carbonyl)hexahydro-2H-pyrido[4,3-b][1,4]oxazin-3(4H)-one]
8.7 nM | O=C1CO[C@H]2CCN(C(=O)N3CC(c4ccc(OCC5CC5)cc4)C3)C[C@H]2N1 [Example 15, (4aR,8aS)-6-(3-(4-(Cyclopropylmethoxy)phenyl)azetidine-1-carbonyl)hexahydro-2H-pyrido[4,3-b][1,4]oxazin-3(4H)-one]
24.5 nM | O=C1CO[C@H]2CCN(C(=O)N3CC(c4nc(-c5ccc(Cl)cc5Cl)no4)C3)C[C@H]2N1 [Example 16, (4aR,8aS)-6-[3-[3-(2,4-Dichlorophenyl)-1,2,4-oxadiazol-5-yl]azetidine-1-carbonyl]-4,4a,5,7,8,8a-hexahydropyrido[4,3-b][1,4]oxazin-3-one]
168 nM | Cn1ncc2cc(C3CN(C(=O)N4CC[C@@H]5OCC(=O)N[C@@H]5C4)C3)ccc21 [Example 17, (4aR,8aS)-6-(3-(1-Methyl-1H-indazol-5-yl)azetidine-1-carbonyl)hexahydro-2H-pyrido[4,3-b][1,4]oxazin-3(4H)-one]
39.2 nM | O=C1CO[C@H]2CCN(C(=O)N3CC(c4noc(-c5ccc(Cl)cc5Cl)n4)C3)C[C@H]2N1 [Example 18, (4aR,8aS)-6-(3-(5-(2,4-Dichlorophenyl)-1,2,4-oxadiazol-3-yl)azetidine-1-carbonyl)hexahydro-2H-pyrido[4,3-b][1,4]oxazin-3(4H)-one]
44.1 nM | O=C1CO[C@H]2CCN(C(=O)N3CC(c4cccc(OC(F)(F)F)c4)C3)C[C@H]2N1 [Example 19, (4aR,8aS)-6-(3-(3-(Trifluoromethoxy)phenyl)azetidine-1-carbonyl)hexahydro-2H-pyrido[4,3-b][1,4]oxazin-3(4H)-one]
147 nM | O=C1CO[C@H]2CCN(C(=O)N3CCC(c4ccn(-c5ccc(F)cc5)n4)CC3)C[C@H]2N1 [Example 20, (4aR,8aS)-6-(4-(1-(4-Fluorophenyl)-1H-pyrazol-3-yl)piperidine-1-carbonyl)hexahydro-2H-pyrido[4,3-b][1,4]oxazin-3(4H)-one]
